# Experiments:
# [1] = Pharmacokinetics and organ distribution after intravenous administration of Sunitinib, Compound 1 and Compound 2 in mice; parameters: AUCiv: unit not given beside the values; conditions: mice
# From the text: Relative Exposure(RE)=AUCi sample/AUCi control
# AUCi—area under curve for the i^th organ or tissue; RE>1 indicates targeting at the organ or tissue, with larger RE indicating greater targeting; RE≦1 indicates non-targeting.
# RTE refers to the multiple of the percent of drug content in a tissue of sample group with respect to total drug amount in the body vs. that in a control group. Positive RTE values indicate enhanced targeting effects and the more positive the more the multiple of enhancement and the more the enhanced targeting. In contrast, negative RTE values indicate reduced targeting effects. Value 0 indicate no influence to the tissue.
# 0.083 h, 0.25 h, 0.5 h, 1 h, 3 h, 8 h post injection, blood was taken by eyeball removal and the mice were sacrificed by cervical dislocation. Tissues were perfused with normal saline and livers and kidneys were removed and cleaned with normal saline. The blood samples were centrifuged to obtain supernatants and stored at −20° C. 50 μL plasma sample and 50 μL internal standard (clozapine) working solution was vortexed with 300 μL MeOH and then centrifuged. 150 μL upper organic phase was obtained and mixed with 150 μL water, followed by centrifugation. 10 μL supernatant was sampled for analysis. The tissue samples were weighted and mixed homogeneously with 10 times weight of water. Since the samples were 10-time diluted, the concentration of the tissue would be 10 times the results determined. The heart tissue was 5-time diluted. 100 μL homogenate was mixed with 50 μL internal standard (clozapine) working solution and 300 μL MeOH and then centrifuged. 150 μL upper organic phase was obtained and mixed with 150 μL water, followed by centrifugation. 10 μL supernatant was sampled for analysis.
# cancer cell xenograft = assay: Pharmacodynamic tests on mice xenograft transplantation model; assay type: in vivo
# Procedure: (§1) For in vitro tests, compounds were directly dissolved in 10 mM DMSO and stored at −20° C. For in vivo tests, the compounds were dissolved in DMSO and neutralized by Tween 80 (DMSO:Tween=1:1) and further neutralized by PBS (pH 7.4). The final concentrations of DMSO and Tween-80 were 5%.
# 5×10^6 cancer cells were subcutaneously injected to the right side of mouse. Drug was intraperitoneally injected at dosages of 1.5 mg/kg, 7.5 mg/kg, 30 mg/kg to the mice, once a day, for 2 weeks when average tumor size reached 75 to 150 mm^3. The size of the tumor was measured every other day. […] Compound 1 had less efficacy.
# We then performed the test through oral route. 5×10^6 cancer cells were subcutaneously injected to the right side of mouse. Drug was orally administered at dosages of 5 mg/kg, 15 mg/kg, 45 mg/kg to the mice, once a day, for 2 weeks when average tumor size reached 75 to 150 mm^3. The size of the tumor was measured every other day.
# 786-O cell or A549 cell = assay: Cell morphology and survival rate after 4 to 8 hours incubation; assay type: cell-based, human
# pSTAT3 = assay: Effects on STAT3 phosphorylation in A549 cell line; assay type: cell-based, human; conditions: 10 μM
# Procedure: as §1
# [2] = test system: A549; NCI-H460; 786-O; Caki-1; HT-29; MCF-7; assay: 72 hour cytotoxicity (CCK8) in different cell lines; assay type: cell-based, human; conditions: 72 hours, CCK8; FIG. 5a-f
# From the text: A549 human non-small cell lung cancer cell line, NCI-H460 human non-small cell lung cancer cell line, 786-O human renal cell line, Caki-1 human renal cell line, HT-29 human colon cancer cell line, MDA-MB-231 human breast cancer cell line, and MCF-7 human breast cancer cell line was purchased from Chinese Academy of Science Shanghai Branch. PLC/PRF-5 human hepatoma cell line and Hepal-6 mouse hepatoma cell line were obtained from Institute of Biochemistry and Cell Biology, SIBS, CAS (SIBCB). Cell lines A549, Caki-1, HT-29, MDA-MB-231, MCF-7, PLC/PRF-5 and Hepal-6 were cultured in DMEM medium (Gibco, Life Technologies, China) and cell lines NCI-H460 and 786-O were cultured in RPMI-1640 medium (Gibco, Life Technologies, China). 10% HI fetal bovine serum was purchased from Gibco, Life Technologies, USA and 1% penicillin/streptomycin was obtained from Hyclone.
# Approx. 2,000 cells in 50 μL complete medium were plated on each well of a 96-well plate and incubated at 37° C., 5% CO2 overnight. Drugs at concentrations of 0.02 to 10 μM were dissolved in 0.1% DMSO, followed by addition into each well. After incubation for 72 hours, 10 μL CCK8 (Dojindo) was added into each well, followed by incubation at 37° C. for another 4 hours. The OD values were obtained by TECAN Microplate Reader at 450 nm.
# as §1
# [3] = Acute toxicity test: maximum tolerance dosage (MTD) determination; assay type: in vivo, BALB/c mice
# Procedure: Methods: Femal BALB/c mice, 4-5 weeks old, weighted greater than 17 g, were used for the test. […] The body weights and conditions of the mice were recorded.
# In contrast, the body weights of mice in compound 2 group increased 6.0% in average.
# To further explore the toxicity of the compounds, blood was collected after 14-day treatment of drugs and critical biochemical index were analyzed.
# [4] = Stability of compounds 1 and 2 in MeOH stock solution and with biomass; assay type: physicochemical
# From the text: No prodrug was detected in organs except for spleen during processing. […] The prodrugs may be converted to Sunitinib or other metabolite during processing or in vivo.
# [5] = Oral route (intragastric gavage) study of Sunitinib and compounds 1 and 2 in mice; assay type: in vivo; parameters: AUCpo: unit not given beside the values; conditions: mice, intragastric gavage
# From the text: Animal experiments: 24 mice in each group were divided into 8 sub-groups.
# [6] = 5.13 mg/kg Compound 1, 5.32 mg/kg Compound 2, 5.14 mg/kg Sunitinib malate, All (sum of organs and plasma)
# [7] = 5.13 mg/kg Compound 1, 5.32 mg/kg Compound 2, 5.14 mg/kg Sunitinib malate, heart
# [8] = 5.13 mg/kg Compound 1, 5.32 mg/kg Compound 2, 5.14 mg/kg Sunitinib malate, kidney
# [9] = 5.13 mg/kg Compound 1, 5.32 mg/kg Compound 2, 5.14 mg/kg Sunitinib malate, liver
# [10] = 5.13 mg/kg Compound 1, 5.32 mg/kg Compound 2, 5.14 mg/kg Sunitinib malate, lung
# [11] = 5.13 mg/kg Compound 1, 5.32 mg/kg Compound 2, 5.14 mg/kg Sunitinib malate, plasma
# [12] = 5.13 mg/kg Compound 1, 5.32 mg/kg Compound 2, 5.14 mg/kg Sunitinib malate, spleen
# [13] = oral once a day for 14 days, 175 mg/kg
# [14] = repeated test, oral once a day, 200 mg/kg
# [15] = 19.248 mg/kg Compound 1, 20 mg/kg Compound 2, 20 mg/kg Sunitinib malate
smiles,measurement,setting,value
"CCN(CC)CCNC(=O)c1c(C)[nH]c(C=C2C(=O)N(CC(=O)Oc3ccccc3)c3ccc(F)cc32)c1C [Compound 2, N-[2-(diethylamino)ethyl]-5-[(5-fluoro-2-oxo-1-(phenylcarboxymethyl)-2,3-indolin-3-ylmethylene)]-2,4-dimethyl-1H-pyrrolidine-3-carboxamide]",AUC,[1]; [6],3926.9 ng·h/mL
same,Cmax,[1]; [6],2673.1 ng/mL
same,AUC,[1]; [7],97.0 ng·h/mL
same,Cmax,[1]; [7],122.4 ng/mL
same,AUC,[1]; [8],474.2 ng·h/mL
same,Cmax,[1]; [8],258.0 ng/mL
same,AUC,[1]; [9],1047.1 ng·h/mL
same,Cmax,[1]; [9],742.7 ng/mL
same,AUC,[1]; [10],1235.0 ng·h/mL
same,Cmax,[1]; [10],763.8 ng/mL
same,AUC,[1]; [11],408.8 ng·h/mL
same,AUCall,[1]; [11],408.8 ng·h/mL
same,Cl,[1]; [11],324.9 mL/h
same,Cmax,[1]; [11],564.4 ng/mL
same,Tmax,[1]; [11],4.8 min
same,V,[1]; [11],406.1 mL
same,AUC,[1]; [12],664.8 ng·h/mL
same,Cmax,[1]; [12],221.8 ng/mL
same,AUCiv,"[1]; Div 3.86, in ng·h/mL",408.8
same,"Cmax, times than that of the control",[1]; control = Sunitinib,approx. 5 times
same,RTE analysis: distribution proportions in organs,[1]; vs Sunitinib control,"increased distribution proportions in spleen and lung, decreased proportions in heart and kidney but great enhancement in plasma"
same,RE,"[1]; vs Sunitinib control, heart",0.13
same,RTE,"[1]; vs Sunitinib control, heart",−0.55
same,RE,"[1]; vs Sunitinib control, kidney",0.16
same,RTE,"[1]; vs Sunitinib control, kidney",−0.45
same,RE,"[1]; vs Sunitinib control, liver",0.47
same,RTE,"[1]; vs Sunitinib control, liver",0.66
same,RE,"[1]; vs Sunitinib control, lung",0.28
same,RTE,"[1]; vs Sunitinib control, lung",−0.01
same,RE,"[1]; vs Sunitinib control, plasma",1.12
same,RTE,"[1]; vs Sunitinib control, plasma",2.93
same,RE,"[1]; vs Sunitinib control, spleen",0.22
same,RTE,"[1]; vs Sunitinib control, spleen",−0.23
same,efficacy on tumor size,"cancer cell xenograft; intraperitoneally injected 1.5, 7.5, 30 mg/kg once a day for 2 weeks",improved efficacy than Sunitinib
same,efficacy on tumor size,"cancer cell xenograft; orally administered 5, 15, 45 mg/kg once a day for 2 weeks",improved efficacy than Sunitinib
same,cell survival,"786-O cell or A549 cell; 786-O cell or A549 cell, incubated for 8 hours",mass cell death
same,cell morphology,786-O cell or A549 cell; cancer cells incubated for 4 hours,changed to round and suffered from stress
same,inhibition of pSTAT3,pSTAT3,strong inhibition
same,IC50 values among several cell lines,[2],comparable
same,tumor killing effects / cytotoxicity,[2],relatively strong tumor killing effects
same,"critical biochemical index (AST, ALT, CHE, urate, blood urea nitrogen, glucose, LDH, CK, CKMB)","[3]; blood after 14-day treatment, 200 mg/kg","except for AST and ALT, these indices were all within normal ranges"
same,body weights increased in average,[3]; [13],6.0%
same,condition of the mice,[3]; [13],performed similarly with negative control group
same,influence on body weight,"[3]; repeated test, oral once a day, 100 mg/kg",little influence on body weight
same,body weights increased in average,[3]; [14],6.0%
same,condition of the mice,[3]; [14],performed similarly with negative control group
same,stability in the event of coexisting with biomass,[4]; coexisting with biomass,easy to degrade
same,stability in MeOH stock solution,[4]; stability test period: 7 days,stable
same,"AUC, times higher than Sunitinib",[5],approx. 3.5 times
same,AUC0→∞,[5]; [15],61.5 ng·h/mL
same,Cl,[5]; [15],4094.7 mL/h
same,Cmax,[5]; [15],27.00 ng/mL
same,Tmax,[5]; [15],1.50 h
same,t1/2,[5]; [15],3.89 h
same,AUCpo,"[5]; Dpo 15.00, in ng·h/mL",951.1
